According to US20050233457A1, “Recombining viral vectors for the tetracycline-regulated expression of genes” (priority 2002, published 2005):

System: HT29 colon carcinoma cells
Test: Luciferase expression in lysates of adenovirally infected HT29 cells
Type: cell-based, human
Conditions: HT29, Ad.3r-luc m.o.i. 30, 24 hours
Experimental: […], Colo205, SkCO-1, AsPc-1, HepG2, MCF-7, BT-20, HeLa, RT4 and U266 cells were seeded in six and twelve (U266) vial-plates at a concentration of 1×10^6 cells per cavity for 6 hours before transfection. The larger HeLa, RT-4 and 293 cells were seeded in a concentration of 5×10^5 cells per vial. U266 myeloma cells were allowed to grow in suspension culture and infected. Purified viral particles were diluted in media without supplementation and the cells were exposed to 500 μl of the suitable virus dilution per vial for 1 hour. After removal of the infectious supernatant, complete media which had been supplemented with different concentrations of doxycycline, were added. The media were changed every 24 hours.
24 hours after infection with Ad.CMV-luc or Ad.3r-luc, the cells were harvested with 150 μl of cell culture lysis reagent according to the manufacturer's (Promega) instructions. The luciferase activity in 20 μl of cell lysate was measured using a Bertold LB9507 luminometer and luciferase assay substrate (Promega). […] The protein concentration was determined using the DC protein assay kit (BioRad, Hercules, Calif.).
Human colon carcinoma cells HT29 are extremely receptive for adenoviral transduction, as has been shown previously (A. Block et al. Cancer Gene Therapy 7 (2000) 438-445). […] The luciferase activity was determined in cell lysates in relation to the dissolved cell protein. […]

SMILES: C[C@H]1c2cccc(O)c2C(=O)C2=C(O)[C@]3(O)C(=O)C(C(N)=O)=C(O)[C@@H](N(C)C)[C@@H]3[C@@H](O)[C@@H]21 [doxycycline]
- doxycycline concentration leading to a significant reduction in gene expression: 100 pg/mL
